Results reported in US20020156013A1, “Asthma associated factors as targets for treating atopic allergies including asthma and related disorders” (priority 1997, published 2002).

Columns and labels:
[1] = system: BaF3 cells; experiment: Proliferation of BaF3 cells transfected with wild-type or constitutively active mutant M-Ras; format: cell-based, murine
Method: To assess the ability of M-Ras to be able to exert a constitutive activity on cellular proliferation and to abrogate the requirement of cytokines in a cytokine-dependent cell line, site directed mutagenesis was used to generate mutant M-Ras proteins to assess their activities. Alignment of M-Ras to the H- and K-Ras proteins permitted identification of potential residues that may result in constitutive activation of M-Ras. Two mutants were prepared at codon 22, substituting a Val or Lys for Gly while another mutant was prepared at codon 71 substituting a Lys for Glu. These substitutions had been previously shown to result in active Ras molecules (FIG. 8). […] Mutant Ras cDNA was then cloned into the NotI-XbaI cloning site of the mammalian expression vector pEF-BOS which contains a puromycin resistance gene for selection of transfected cells. These expression vectors were then transfected into the IL-3 dependent cell line BaF3 and it was assayed for cytokine-independent growth. BaF3 cells were transfected with the three mutant M-Ras vectors, the wild type M-Ras vector or an empty vector by electroporation using the Gene Pulsar II (Bio-Rad). The settings used were […], 74 ohms and 300 volts with 50 μg of sterile DNA. Pooled transfected cells were selected with puromycin (3 μg/ml) and M-Ras expression was determined by Northern blot. All constructs expressed equivalent amounts of exogenous M-Ras.
The murine T-cell line TS2 grows in response to IL-2 and IL-9 in vitro. […] In addition, the MAPK inhibitor PD98059 has the ability to block M-Ras signaling as described in Example 10. […] Cells which were maintained in medium described in Example 1 plus IL-2, were washed once with phosphate-buffered saline and plated at 3000 cells per well in the presence of 200 U/ml IL-2 or 200 U/ml of IL-9. […] The cells were then harvested onto glass fiber filters and analyzed by scintillation counting.
Cells were plated at 3000 cells/well in the presence or absence of IL-3 and 10 μm PD98059 and assessed for proliferation as described in Example 12. […]

[2] = system: Elk (a target of the MAPK pathway); experiment: PathDetect signal transduction pathway reporting system (GAL4-Elk luciferase reporter) with activated M-Ras mutants; format: cell-based; details: HEK293 cells, GAL4-Elk fusion
Text: In order to characterize the pathway stimulated by activated M-Ras, applicants tested the ability of activated mutants to up-regulate the mitogen-activated protein kinase (MAPK) pathway or the c-Jun N-terminal kinase (JNK) pathway using an in vitro signal transduction pathway reporting system (FIG. 11). This luciferase-based assay allows for indirect measurement of Elk (target of the MAPK pathway) or Jun (target of the JNK pathway) protein activation. Activated MEK1, which activates Elk, served as a positive control for the MAPK pathway whereas activated MEKK was used as a positive control for the JNK pathway because it activates Jun.
The results of this experiment are shown in FIG. 12 for the MAPK pathway. […] In addition, M-Ras-1, M-Ras-2 and M-Ras-3 mutants activated Elk, indicating M-Ras induced activation of the MAPK pathway.
To characterize the activation pathway triggered by activated M-Ras, the ability of the M-Ras mutants described in Example 8 to activate the mitogen-activated protein kinase (MAPK) pathway or the c-JUN N-terminal Kinase (JNK) pathway was tested using the PathDetect in vivo signal transduction pathway reporting system (Stratagene). […] As expected, significant luciferase activity was detected when cells expressed the GAL4-Elk fusion protein together with activated MEK-1. […]

[3] = system: TS2 cells; experiment: Cytokine-induced proliferation of TS2 cells (tritiated thymidine); format: cell-based, murine
Method: TS2 cells were grown in DMEM medium supplemented with 10% fetal calf serum, 50 μM 2-mercaptoethanol, 0.55 mM L-arginine, 0.24 mM L-asparagine and 1.25 mM L-glutamine.
The murine T-cell line TS2 grows in response to IL-2 and IL-9 in vitro. […] Cells which were maintained in medium described in Example 1 plus IL-2, were washed once with phosphate-buffered saline and plated at 3000 cells per well in the presence of 200 U/ml IL-2 or 200 U/ml of IL-9. Cells were grown for three days in the presence of […] (10 μM) and then pulsed for four hours with tritiated thymidine. The cells were then harvested onto glass fiber filters and analyzed by scintillation counting.
The data is shown as percent growth as compared to cytokine only.

[4] = system: ERK1, 2 or 5 family or JNK family of MAPK; details: Lee et al., 1994; Gallagher et al., 1997; cited from earlier work
[5] = target: p38 MAPK (Homo sapiens, UniProt Q16539); details: Lee et al., 1994; Gallagher et al., 1997; cited from earlier work
Sequence of p38 MAPK (Q16539 whole entry): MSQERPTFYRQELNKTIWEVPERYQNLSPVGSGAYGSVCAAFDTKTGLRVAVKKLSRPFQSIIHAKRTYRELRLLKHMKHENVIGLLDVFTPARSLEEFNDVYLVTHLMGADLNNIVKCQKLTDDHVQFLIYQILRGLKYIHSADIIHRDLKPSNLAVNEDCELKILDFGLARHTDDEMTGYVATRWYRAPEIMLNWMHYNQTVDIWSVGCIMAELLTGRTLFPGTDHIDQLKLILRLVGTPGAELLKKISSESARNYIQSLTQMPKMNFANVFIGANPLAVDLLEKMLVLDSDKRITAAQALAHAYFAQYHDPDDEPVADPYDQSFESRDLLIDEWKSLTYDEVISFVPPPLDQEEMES

[6] = system: M-Ras; experiment: M-Ras induction in mitogen stimulated splenocytes (RT-PCR); format: cell-based, DBA2 mouse; details: DBA2 splenocytes, 5 ug/ml concanavalin A, 10 μg/ml aminosterol, 24 hours
Method: Splenocytes from the DBA2 bronchial hyperresponsive mouse were treated with aminosterol compounds to test for their ability to block the induction of M-Ras in response to mitogens. This group of aminosterols was identified from the liver of the dogfish shark and as a class appear to be antiproliferative. This series of aminosterols was assayed for their ability to inhibit M-Ras expression and TH2 activity in mitogen stimulated splenocytes from the DBA2 mouse.
Splenocytes were isolated from naive DBA2 mice by aseptic removal of spleens from anesthetized mice. Spleens were then minced by sterilized scissors and tissue was passed through a sterilized #60 wire mesh sieve. Cells were resuspended in RPMI medium and washed twice in the same medium. Cells were then resuspended in lysis buffer (4.15 g NaCl, 0.5 g KHCO3, 0.019 g EDTA in 500 ml of dH2O) to lyse red blood cells. Cells were incubated at 37° C. for 5 minutes and resuspended in RPMI plus heat inactivated 10% fetal bovine serum. Cells were then spun down and resuspended in RPMI growth media (as above) plus 5 ug/ml of concanavalin A. Cell cultures were treated with 10 μg/ml of the aminosterol compounds for 24 hours and were then harvested for RNA isolation using the Trizol method described by the manufacturer (Gibco-BRL). […]

[7] = system: M-Ras; experiment: M-Ras prenylation in transfected BW5147 cells (immunoprecipitation, SDS-PAGE migration); format: cell-based, murine; details: BW5147 cells with pEF-BOS-M-Ras, 4 mg/ml lovastatin, three days, versus untreated
Method: BW5147, a murine thyoma cell line that grows in the absence of any cytokine, was stably transfected with an expression vector containing wild type M-Ras cDNA (pEF-BOS-M-Ras). After two weeks of selection in 3 μg/ml of Puromycin, cells were treated for three days with different compounds previously reported to work as inhibitors of p21 Ras prenylation. Cells were then harvested and proteins were extracted and immunoprecipitated with a rabbit antibody (JAL4) specific for M-Ras. Immunoprecipitates were electrophoretically resolved by SDS-PAGE (18%) and transferred to PVDF membrane. Immunoblots were successively probed with JAL4 antibody (1:1500 dilution) to detect the expression and migratory pattern of M-Ras protein. The non-prenylated form of p21 Ras migrates slower than the fully processed form. […] In contrast, cells transfected with pEF-BOS-M-Ras overexpressed the M-Ras protein.

[8] = system: TS2 cells; experiment: Proliferation of TS2 cells with lovastatin (3H-thymidine incorporation); format: cell-based, murine; details: Mus musculus, 72 h; IL-2 or IL-9 5 ng/ml, different concentrations of lovastatin, three days; maximal inhibition; read-out: inhibition of cellular proliferation of TS2 cells as compared to untreated cells
Method: To further test the role of M-Ras in IL-9 signaling, yet another IL-9 responsive cell line was treated with the farnesyl transferase inhibitor lovastatin to determine if the Ras pathway was utilized for proliferation. TS2 cells were washed three times and plated in 96-well plates at a density of 1,000 cells per well. IL-2 or IL-9 was added successively at a concentration of 5 ng/ml together with different concentrations of lovastatin as indicated. DMSO was included as the vehicle control. After three days, the rate of proliferation was determined by ^3H-thymidine incorporation ([…] per well) and percent of inhibition was obtained from the ratio between treated and untreated cells.

[9] = system: TS1-RA3 cells; experiment: IL-9 induced proliferation of TS1-RA3 cells (acid phosphatase assay); format: cell-based, murine; details: grown in IL-9, varying amounts of manumycin A, 4 days; maximal inhibition
Method: Ras molecules have been previously shown to function after prenlylation via farnesyl transferase and subsequent attachment to the inner cytoplasmic membrane. To test the role of M-Ras in IL-9 signaling, IL-9 responsive cells were treated with the farnesyl transferase inhibitor manumycin A in a proliferation assay to determine if the Ras pathway was utilized for proliferation. TS1-RA3 cells, which are a murine TH2 lymphocyte cell line expressing human IL-9 receptor by a transfected expression construct, were grown in the presence of IL-9 and in the absence or in varying amounts of manumycin A for 4 days.

## COc1cccc(-c2cc(=O)c3ccccc3o2)c1N [PD98059]
[1]; BaF3, absence of IL-3, 10 μm PD98059
  proliferation of cells expressing the mutant M-Ras gene: blocked
[1]; BaF3, with IL-3, 10 μm PD98059
  IL-3 induced cellular proliferation of M-Ras wild-type transfected cells: no activity
  proliferation of mutant M-Ras cells grown with IL-3 (cellular toxicity check): could proliferate
[2]
  luciferase induction by M-Ras-1, M-Ras-2 and M-Ras-3 mutants: blocked
[3]; 200 U/ml IL-2, inhibitor 10 μM, three days
  growth of cells grown in IL-2: no inhibitory activity
[3]; 200 U/ml IL-9, inhibitor 10 μM, three days
  growth of cells grown in IL-9: growth inhibited

## Oc1ccc(-c2nc(-c3ccncc3)c(-c3ccc(F)cc3)[nH]2)cc1 [SB202190]
[4]
  inhibition of ERK1, 2 or 5 family or JNK family of MAPK: not
[5]
  inhibition of p38 MAPK: specifically inhibit
[3]; IL-2, percent growth compared to cytokine only
  ability of TS2 cells to proliferate in response to IL-2: not
[3]; IL-9, percent growth compared to cytokine only
  ability of TS2 cells to proliferate in response to IL-9: blocked

## CC(C)[C@@H](CC[C@@H](C)[C@H]1CC[C@H]2[C@@H]3[C@H](O)C[C@H]4C[C@@H](NCCCNCCCCNCCCN)CC[C@]4(C)[C@H]3CC[C@]12C)OS(=O)(=O)O [compound 1436]
[6]
  expression of M-Ras: no effect

## CC[C@H](C)C(=O)O[C@H]1C[C@@H](C)C=C2C=C[C@H](C)[C@H](CC[C@@H]3C[C@@H](O)CC(=O)O3)[C@H]21 [lovastatin]
[7]
  migration of M-Ras protein on SDS-PAGE (non-prenylated form migrates slower): migrated higher
[8]
  inhibition at 0.005 µg/mL: ≤ 95%

## CCCC[C@@H](C)/C=C(C)/C=C(\C)C(=O)NC1=C[C@@](O)(/C=C/C=C/C=C/C(=O)NC2=C(O)CCC2=O)[C@@H]2O[C@@H]2C1=O [manumycin A]
[9]
  inhibition of cellular proliferation of TS1-RA3 cells as compared to untreated cells: up to 76%
